Laboratory results reported in patent US6391914B1, “Optically active aminopentane derivatives” (Fujimoto Brothers Co., Ltd., priority 1998, dated 2002).
Where a name gives a salt, the structure may show the parent alone.

Experiments:
[1] = target: T1, monoamine oxidase type-B (MAO-B) (Mus musculus, UniProt Q8BW75); assay: Mice brain MAO-B inhibition (14C-phenylethylamine); format: biochemical; conditions: concentration of 10^−5 mol/L
T1 construct: the pellet was resuspended in the above buffer to be enzyme solution; from tissue; host or cells: whole brain of male C57Bl/6 mice, 40,000 g pellet
T1 sequence (Q8BW75 1-520): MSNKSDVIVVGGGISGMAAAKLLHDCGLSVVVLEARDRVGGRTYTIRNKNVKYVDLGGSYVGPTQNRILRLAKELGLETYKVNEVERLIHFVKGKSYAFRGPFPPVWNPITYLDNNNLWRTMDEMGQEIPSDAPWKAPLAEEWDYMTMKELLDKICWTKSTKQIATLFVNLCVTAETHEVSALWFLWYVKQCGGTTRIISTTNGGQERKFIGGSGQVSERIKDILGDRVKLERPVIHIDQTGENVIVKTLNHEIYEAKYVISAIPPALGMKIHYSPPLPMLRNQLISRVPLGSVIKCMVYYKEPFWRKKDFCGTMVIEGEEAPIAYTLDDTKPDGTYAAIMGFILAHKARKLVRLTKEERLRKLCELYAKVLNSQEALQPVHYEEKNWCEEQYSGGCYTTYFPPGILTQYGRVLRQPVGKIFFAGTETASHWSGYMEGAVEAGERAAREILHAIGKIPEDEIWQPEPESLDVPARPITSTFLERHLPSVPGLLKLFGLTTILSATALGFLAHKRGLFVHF
Protocol: After male C57B1/6 mice were decapitated, the whole brain was isolated immediately. The brain samples were weighed, and homogenized in 0.2 mol/L potassium phosphate buffer (pH 7.5) containing 1.0% EDTA-2Na by homogenizer. After the homogenate was centrifuged at 2,000 RPM for 20 min, the supernatant was centrifuged at 18,000 RPM (40,000 g) for 30 min. The pellet was resuspended, and further centrifuged in the same manner. Thereafter, the pellet was resuspended in the above buffer to be enzyme solution. All procedure was carried out at 4° C.
^14C-Labeled substrate (^14C-phenylethylamine) and enzyme solution from mice are mixed in test tube, incubated for 30 min at 37° C., and stopped the reaction with 20 μL of 6 mol/L Hcl. The reaction product was extracted with toluene-ethylacetate (1:1), and the radioactivity was measured using scintillation counter. Then, MAO-B inhibitory activity was calculated.

[2] = tested on: tetrabenazine-treated rats; assay: Conditioned avoidance task in the shuttle box, tetrabenazine-treated rats; format: in vivo, rat; conditions: for Minimum dose to cause conditioned avoidance reflexes (CARs) in tetrabenazine-treated rats in shuttle box: with tetrabenazine 1 mg/kg s.c.
Protocol: The method described in Life Sci., 58, 817-827 (1996) was used. The effects on conditioned avoidance reflex (CARs) were analyzed in the shuttle box using male and female rats (weighing 200-220 g) whose learning abilities were reduced by the administration of tetrabenazine. The instrument was constructed, according to the device described in Psychopharmacologia 10, 1-5 (1966). The male and female rats (weighing 200-220 g) were trained to cross the barrier under a conditioned stimulus. (CS, light flash and buzzer sounds). […] In addition, the unconcerned performance to this condition was noted as an intersignal reaction (IR). The rats were trained with 100 trials a day for 5 days. Each trial was carried out with 15-sec intertrial interval. Tetrabenazine saline solution was subcutaneously administered at a dose of 1 mg/kg 1 hr before the test. Then the solution of the compounds of the invention was administered at the doses of 1, 2, 2.5 and 5 mg/kg, s.c., simultaneously with tetrabenazine. The numbers of CARs, EFs and IRs were automatically counted and analyzed using one-way analysis of variance (ANOVA).
Therefore, the compound has no stimulant-like excitement.

5-HT1 receptor = assay: Receptor affinity, 3H-5-HT binding; set-up: species or system rats; conditions: 2 nmol/L 3H-5-HT; read-out: Affinity to 5-HT1 receptor: concentration showing 50% inhibition between ligand and receptor
Protocol: (§1) The receptor solution was prepared as follows. After the rats were decapitated, brain was immediately isolated and weighed. Thereafter, brain samples were homogenized in ten times volumes of ice-cold 0.35 mol/L sucrose (pH 7.4) using glass homogenizer with Teflon pestle, which was revolted by motors. The homogenate was centrifuged at 4° C. at 900×g for 10 min and the supernatant was, furthermore, recentrifuged at 4° C. at 22,000×g for 20 min. The precipitate was suspended with addition of 5 mmol/L phosphate buffer solution (pH 7.4). After the suspension was incubated at 37° C. for 30 min, the suspension was recentrifuged at 4° C. at 20,000×g for 20 min. […]
(§2) ^3H-prazocin was used as a ligand. […] In addition, the nonspecific binding was evaluated with binding value of ^3H-prazocin in the presence of 0.1 μmol/L prazocin. […] After 10 ml of scintillation cocktail was put in it, the radioactivity was measured. Affinity of the compounds of the invention to α1 receptor was evaluated from the inhibition rate of binding between α1 receptor and the ligand.
(§3) Affinities of the compounds of the invention to receptors of α2, D1, D2, 5-HT1 and 5-HT2 were respectively determined in the same manner, while used 0.7 nmol/L ^3H-rauwolscine, 1.4 nmol/L ^3H-SCH-23390, 2.0 nmol/L spiperone, 2 nmol/L ^3H-5-HT and 0.5 nmol/L ^3H-ketanserin as each ligands. […]

[3] = tested on: isolated rat brain stem (electric-stimulated); assay: Biogenic amines released from the rat brain stem by electrostimulation; conditions: for Minimum dose causing to release noradrenaline from electric-stimulated brain stem: electrostimulation 3 Hz, 1 ms, 60 V; for Minimum dose causing to release serotonin from electric-stimulated brain stem / Minimum dose causing to release dopamine from electric-stimulated brain stem: electrostimulation
[4] = tested on: primary cultured hepatocyte; assay: Toxicity screening using primary cultured hepatocyte (LDH release); format: cell-based, rat; conditions: 24 hr
Protocol: The hepatocytes was prepared from rat liver using collagenase perfusion method and the cell suspension containing 5×10^5 cells/mL were prepared. After cultivation for 24 hr, the medium was changed to the William's Medium E (GIBCO ERL) containing 10 or 100 μmol/L of the compounds of the invention. After cultivation for 24 hr, the activity of lactatedehydrogenase (LDH) released into the medium was measured.

5-HT2 receptor = target: T2, 5-HT2 receptor (Rattus norvegicus, UniProt P14842); assay: Receptor affinity, 3H-ketanserin binding; set-up: species or system rats
T2 construct: from tissue; host or cells: rat brain membranes
T2 sequence (P14842 whole entry): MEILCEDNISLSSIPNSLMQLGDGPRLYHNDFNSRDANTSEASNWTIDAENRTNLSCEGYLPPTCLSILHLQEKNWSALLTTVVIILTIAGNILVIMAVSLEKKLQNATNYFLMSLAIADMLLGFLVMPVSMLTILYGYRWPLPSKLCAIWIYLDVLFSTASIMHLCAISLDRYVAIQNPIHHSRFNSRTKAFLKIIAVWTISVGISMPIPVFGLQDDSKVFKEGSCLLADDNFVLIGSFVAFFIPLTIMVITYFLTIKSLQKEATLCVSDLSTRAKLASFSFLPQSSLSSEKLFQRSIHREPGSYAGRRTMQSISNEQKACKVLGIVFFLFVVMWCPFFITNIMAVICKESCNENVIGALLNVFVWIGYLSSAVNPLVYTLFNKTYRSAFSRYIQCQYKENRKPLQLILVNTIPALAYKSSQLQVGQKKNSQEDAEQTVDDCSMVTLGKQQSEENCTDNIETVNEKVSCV
Protocol: as §1, §2, §3

SMILES	inhibition at 10 µM ([1]; read-out: Mice brain MAO-B inhibitory activity)	Minimum dose to cause conditioned avoidance reflexes (CARs) in tetrabenazine-treated rats in shuttle box ([2]; s.c.)	IC50 (5-HT1 receptor)	Minimum dose causing to release noradrenaline from electric-stimulated brain stem [3]	Minimum dose causing to release serotonin from electric-stimulated brain stem [3]	Percent control of LDH release from primary cultured hepatocyte ([4]; 10 μmol/L)	Percent control of LDH release from primary cultured hepatocyte ([4]; 100 μmol/L)	IC50 (5-HT2 receptor)	Mice brain MAO-B inhibitory activity [1]	Minimum dose causing to release dopamine from electric-stimulated brain stem [3]	Reduced learning function of rats administered with tetrabenazine (FIG. 2) ([2]; shuttle box, s.c.)	Intersignal reactions (IRs) ([2]; shuttle box, tetrabenazine-treated rats)	Noradrenaline, serotonin and dopamine release on electrostimulation (FIG. 1) ([3]; electrostimulated brain stem)	Percent control of LDH release from primary cultured hepatocyte ([4]; 10 μmol/L, hydrochloride)	Percent control of LDH release from primary cultured hepatocyte ([4]; 10 μmol/L, listed as the compound of the invention, hydrochloride)	Percent control of LDH release from primary cultured hepatocyte ([4]; 100 μmol/L, hydrochloride)	Percent control of LDH release from primary cultured hepatocyte ([4]; 100 μmol/L, listed as the compound of the invention, hydrochloride)
CCCNC(CCC)Cc1cc2ccccc2o1.Cl (racemic) [Racemic compound, (±)-1-(benzofuran-2-yl)-2-propylaminopentane hydrochloride]	22.9%	1 mg mg/kg	> 10 µM	5 µg/mL	1 µg/mL	90.28 ± 2.85 Percent control	112.10 ± 36.98 Percent control	20 µM	–	–	–	–	–	–	–	–	–
CCCNC(CCC)Cc1cc2ccccc2o1.Cl (single isomer, unassigned; (+)) [(+)-Isomer, (+)-1-(benzofuran-2-yl)-2-propylaminopentane hydrochloride]	–	2.5 mg mg/kg	–	0.5 µg/mL	10 µg/mL	124.41 ± 12.54 Percent control	116.72 ± 6.91 Percent control	> 10 µM	1.7%	5 µg/mL	–	–	–	–	–	–	–
CCCNC(CCC)Cc1cc2ccccc2o1 (single isomer, unassigned; (-)) [The compound of the invention, (−)-1-(benzofuran-2-yl)-2-propylaminopentane hydrochloride]	–	5 × 10^−2 mg mg/kg	> 10 µM	0.01 µg/mL	0.0005 µg/mL	–	–	–	4.7%	0.05 µg/mL	significantly improved	did not significantly change IRs	confirmed to enhance noradrenaline, serotonin and dopamine release	104.94 ± 4.96 Percent control	not increase	126.42 ± 8.04 Percent control	slightly increased LDH release
